Literature values in patent publication US9492489B2, “Uses of hibiscus, in particular pharmaceutical uses” (NATUREX, priority 2007, dated 2016).

Measured: antibacterial properties in vitro

O=c1c(O)c(-c2ccc(O)c(O)c2)oc2c(O)c(O)cc(O)c12 [gossypetin, 3,5,7,8,3′,4′-hexahydroxy-flavone]
antibacterial properties: Bacillus pumpilus | Staphylococcus aureus | Bacillus subtilis | Pseudomonas aeruginosa | Escherichia coli
